Several values for one entry are separate records, joined by “and”; a condition that tells them apart may be missing. Equal values may be shown once. Read-outs that look alike come from different tables or passages of the source.
Assays:
Kal^Sec14 [1] = target: T1, Kal^Sec14 (Rattus norvegicus, UniProt P97924, N62Y/T46S); assay: NMR chemical shift perturbation (CSP) titration, 1H-15N HSQC; assay type: binding
T1 construct: 19.4 kDa); His6 (TEV-cleavable) (N, cleaved yes); made in house; host or cells: E. coli BL21(DE3)
Procedure: (§1) ^1H-^15N HSQC spectra of the uniformly ^15N-labeled Kal^bSec14 and Kal^Sec14 were recorded at 25 °C on an Agilent VNMRS 800 MHz (^1H) spectrometer equipped with a cryogenic probe. ^1H-^15N HSQC spectra of the uniformly ^15N-labeled Kal^bSec14 mutants were recorded using the TopSpin software (https://www.bruker.com/en/products-and-solutions/mr/nmr-software/topspin.html) at 25 °C on a Bruker Avance NEO 600 MHz spectrometer equipped with a cryogenic probe. All detergents and lipids used in this study were purchased from Cube Biotech Inc. (Wayne, Pennsylvania) and Avanti Polar Lipids, Inc. (Alabaster, Alabama), respectively; details are listed in Supplementary Table 2. After collecting an initial protein-only spectrum with a starting protein concentration of 0.4 mM, each detergent or lipid was dissolved in the same NMR buffer and gradually added to the protein until no further CSP was observed. Each series usually comprised 8-12 titration points, with ligand concentrations ranging from 0 to 8 mM and final protein:ligand ratios from 1:7 to 1:25 (the protein concentration in each mixture during titration was confirmed by UV-vis absorbance at 280 nm). The HSQC spectrum was recorded for each titration point using the same instrument setup as that of the apo protein. All spectra were processed with NMRPipe[59], and peak heights and locations were analyzed in CcpNmr Analysis[60].
(§2) For each titration series, observed CSPs for a single amino acid residue were calculated using the combined shift change (Δδ) of the backbone amide nitrogen and proton based on the equation △δ(ppm)=[△δH2+(α⋅△δN)^2] , where ΔδH and ΔδN are the ^1H and ^15N chemical shift differences between the free and bound states, respectively, and α denotes the chemical shift scaling factor for ^15N[63].
(§3) In each titration series, the peaks for all residues were ranked based on the CSP observed upon titration at the highest ligand concentration. […] The well-resolved and non-overlapped CSPs, usually including most of the 2σ CSPs and some of the 1σ CSPs, were then plotted as a function of the ligand concentration and the dissociation constant (KD) was extracted by nonlinear least-square fitting of the following equation: △δobs=△δmax(KD+[L]t+[P]t)−(KD+[L]t+[P]t)^2−4[L]t[P]t/2[P]t , where [P]t and [L]t are the total protein and ligand concentrations, respectively, and △δmax is the chemical shift difference at saturation. The bound fraction plotted as the y-axis in the Figures was defined as △δobs/△δmax based on the average of the normalized CSPs from all the selected peaks. Titration data for each residue and each peak used for KD calculations are provided in the Source Data file.

KalbSec14 [2] = target: T2, KalbSec14 (Rattus norvegicus, UniProt P97924, N62Y/T46S); assay: as above; assay type: binding
T2 construct: His6 (TEV-cleavable) (N, cleaved yes); made in house; host or cells: E. coli BL21(DE3)
Procedure: as §1, §2, §3

KalbSec14 [3] = target: T2, KalbSec14; assay: Isothermal titration calorimetry (preliminary); assay type: binding; details: data not shown; authors' response in peer review file; read-out: estimated KD from preliminary ITC data
α-TTP = target: α-TTP; design: method as in earlier work; details: quoted by reviewer as specific binding; ref 1 Panagabko, C. et al. Biochemistry 42, 6467–74 (2003); cited from earlier work
KalbSec14 [4] = target: T2, KalbSec14; assay: Liposome flotation binding assay (Accudenz gradient, Western blot)
Procedure: Unilamellar liposomes formed by mixing synthetic dioleoyl phospholipids and cholesterol in proportions mimicking the membranes of the trans-Golgi network (Golgi-mixture) were incubated with Kal^bSec14. An Accudenz gradient was used to separate liposome-bound proteins, which were recovered from the top of the gradient (fraction 1), from unbound proteins, which remained at the bottom (fraction 4). Protein levels in each fraction were analyzed by Western blotting with an antibody to the Sec14 domain of Kalirin.
(§4) The synthetic and natural lipids used in flotation assays were purchased from Avanti Polar Lipids, Inc. (Supplementary Table 2). All powdered lipids were dissolved in chloroform per the manufacturer’s instructions. Liposomes were prepared as previously described. […] Individual test lipids were dried together with the control lipid mix under a nitrogen stream and lyophilized overnight. Each dried lipid film was reconstituted to a final concentration of 1 mM in HN buffer containing 20 mM HEPES (pH 7.4) and 150 mM NaCl. Each final lipid mixtures consisted of 52% DOPC, 20% DOPE, 5% DOPS, 15% cholesterol and 8% tested lipid; inclusion of a trace amount of fluorescent lipid (Liss Rhod PE) allowed for localization of liposomes following gradient fractionation (see below). Each lipid mixture underwent five freeze-thaw cycles separated by vigorous vortexing each time it was thawed. Using a mini-extruder, unilamellar liposomes were prepared by passing each lipid mixture 21 times through a polycarbonate membrane of 100-nm pore size. Hydrated lipid mixtures were stored at −20 °C for up to 1 month; liposomes were freshly prepared for each experiment.
(§5) Flotation assays were conducted following the protocol previously described. Accudenz (Accurate Chemical and Scientific Corp., Westbury, NY) solutions (80 and 20% weight/vol) were prepared in HN buffer. To remove any particulate material, the protein to be tested was first centrifuged at 436,000 g at 4 °C for 15 min in a TL-100 ultracentrifuge using a Beckman TLA100.2 fixed angle rotor. Freshly prepared unilamellar liposomes (50 μl) were combined with 0.2 μg of the centrifuged protein and incubated at room temperature for 30 min. The entire liposome/protein mixture was then combined with 50 μl of 80% Accudenz at the bottom of an ultracentrifuge tube and carefully mixed to completion by pipetting. The resulting mixture was overlayered with […] of 20% Accudenz and then with 50 μl of HN buffer. Samples were centrifuged at 259,000 g at 4 °C for 30 min in the same ultracentrifuge using a Beckman TLS55 swinging bucket rotor. Gradients were then divided into four 100-μl fractions, which were carefully collected from the bottom of the tube using gel loading micropipette tips. Each fraction was analyzed for liposome and protein content using spectrophotometry (546-nm excitation/571-nm emission) and Western blot, respectively. Only those assays with at least 90% of the Liss Rhod PE marker recovered in the top fraction (fraction 1) were used for Western bloting analysis.
(§6) For Western bloting analysis, equal aliquots of each gradient fraction were denatured in 1× Laemmli sample buffer, fractionated on 15% acrylamide gels, and transferred to PVDF membranes. The protein content was detected using a custom-made rabbit antibody to the Sec14 domain of Kalirin (CT302[69], 1:3000) and an HRP-tagged goat anti-rabbit IgG (H + L) secondary antibody (catalog # 31460, 1:6000; ThermoFisher Scientific). SuperSignal West chemiluminescent substrate (Thermo Scientific) and a Syngene PXi digital imaging system (Synoptics Group) were used to visualize blots, with exposures adjusted to be in the linear range.

Kal^Sec14 [5] = target: T1, Kal^Sec14; assay: as above; details: Suppl. Fig. 9b,c
Procedure: as §4, §5
as §6, with “range. After background subtraction, bands were quantified using the GeneSys software provided with the imaging system, and data were represented as a proportion of total protein recovered. Uncropped blots, quantification of each data point and exact P-values are provided in the Source Data file. […]” for “range.”
a. Representative Western blots from flotation assays with Kal Sec14 alone (Control), and Kal Sec14 with the control lipid mix (Lipo) or with the lipid mix containing the indicated additional lipid. After binding and separation of liposome bound Kal Sec14 from unbound Kal Sec14 on Accudenz gradients, the protein content of four gradient fractions was dete rmined by immunoblot; liposomes were recovered from the top fraction (fraction 1). Source data are […]

Kal^cSec14 = details: previous studies; cited from earlier work
[6] = construct without Ex1B front peptide, NMR titration, mean ± S.D. over residues, 25 °C, read-out: KD
[7] = NMR titration, two-state binding model, mean ± S.D. of CSP data for individual residues, 25 °C, read-out: KD
[8] = source data of the global fitting, S.D. in the next column, read-out: KD, Ave of residue peaks
[9] = mean of independent experiments, normalized to total protein recovered, test lipid 8% of liposome lipid
[10] = average, biological replication ≥ 3
[11] = individual experiments (Exp. 1-4)

CCCCCCCCCCCCOP(=O)([O-])OCC[N+](C)(C)C [FC12, dodecylphosphocholine]
Kd (Kal^Sec14 [1]; [6]): 514 ± 66 µM | Kd (Kal^Sec14 [1]; read-out: KD of FC12 binding to KalSec14, Ave, average over residue peaks 1-20): 514 µM | Kd (Kal^Sec14 [1]; read-out: KD of FC12 binding to KalSec14, fit of individual residue peak, residue peaks 1-20, ligand concentrations given in mM): 498 µM and 470 µM and 575 µM and 487 µM (2×) and 514 µM and 590 µM and 540 µM and 542 µM and 537 µM and 496 µM (2×) and 477 µM and 505 µM and 512 µM and 511 µM and 332 µM and 481 µM and 555 µM and 685 µM | Kd (KalbSec14 [2]; [7]): 245 ± 36 µM | Kd (KalbSec14 [2]; [8]): 245 µM | Kd (KalbSec14 [2]; source data of the global fitting, peaks numbered, residues not named, read-out: KD fitted for individual residue peaks): 198 µM and 290 µM and 295 µM and 203 µM and 213 µM and 217 µM and 232 µM and 242 µM and 245 µM and 277 µM and 286 µM | Kd (KalbSec14 [3]): ~500 µM

CCCCCCCCCCCCCCOP(=O)([O-])OCC[N+](C)(C)C [FC14, tetradecylphosphocholine]
Kd (Kal^Sec14 [1]; [6]): 35.6 ± 7.2 µM | Kd (Kal^Sec14 [1]; read-out: KD of FC14 binding to KalSec14, Ave, average over residue peaks 1-24): 35.6 µM | Kd (Kal^Sec14 [1]; read-out: KD of FC14 binding to KalSec14, fit of individual residue peak, residue peaks 1-24, ligand concentrations given in mM): 47.7 µM and 39.3 µM (2×) and 55.2 µM and 45.5 µM and 35.6 µM (3×) and 25.3 µM and 26.6 µM and 37.4 µM (4×) and 32.3 µM (3×) and 33.9 µM (3×) and 27.9 µM (2×) and 41.2 µM and 24.1 µM | Kd (KalbSec14 [2]; [7]): 17.1 ± 4.9 µM | Kd (KalbSec14 [2]; [8]): 17.1 µM | Kd (KalbSec14 [3]): ~30 µM

Cc1c(C)c2c(c(C)c1O)CC[C@@](C)(CCC[C@H](C)CCC[C@H](C)CCCC(C)C)O2 [α-tocopherol]
Kd (α-TTP): 0.025 µM

L-α-phosphatidylinositol-4-phosphate [PI4P]
binding of Kal^bSec14 to liposomes containing the lipid (KalbSec14 [4]; Golgi-mixture liposomes with 8% test lipid, result in words): does not interact | Fraction 1 protein content (top fraction, liposome-bound), densitometry, Ave. (KalbSec14 [4]; [9]): 0.0251 | Fraction 2 protein content, densitometry, Ave. (KalbSec14 [4]; [9]): 0.0079 | Fraction 3 protein content, densitometry, Ave. (KalbSec14 [4]; [9]): 0.11 | Fraction 4 protein content (bottom fraction, unbound), densitometry, Ave. (KalbSec14 [4]; [9]): 0.86 | Fraction 4 protein content (bottom fraction, unbound), densitometry (KalbSec14 [4]; single experiments, normalized to total protein recovered, test lipid 8% of liposome lipid): 0.87 and 0.90 and 0.84 and 0.91 and 0.78 | Densitometry values for the Western blots, Fraction 1, Ave. (Kal^Sec14 [5]; [10]): 0.06 | Densitometry values for the Western blots, Fraction 2, Ave. (Kal^Sec14 [5]; [10]): 0.02 | Densitometry values for the Western blots, Fraction 3, Ave. (Kal^Sec14 [5]; [10]): 0.13 | Densitometry values for the Western blots, Fraction 4, Ave. (Kal^Sec14 [5]; [10]): 0.79 | Densitometry values for the Western blots, Fraction 1 (Kal^Sec14 [5]; [11]): 0.08 and 0.06 and 0.0331 | Densitometry values for the Western blots, Fraction 2 (Kal^Sec14 [5]; [11]): 0.00889 and 0.05 and 0.0021 | Densitometry values for the Western blots, Fraction 3 (Kal^Sec14 [5]; [11]): 0.04 and 0.22 and 0.13 | Densitometry values for the Western blots, Fraction 4 (Kal^Sec14 [5]; [11]): 0.87 and 0.67 and 0.84 | interaction of Kal^cSec14 with liposomes containing the lipid (Kal^cSec14): specifically interacts
